In patent publication US20250326748A1, “COMPOUNDS AND METHODS FOR MODULATING SPLICING” (REMIX THERAPEUTICS INC., priority 2022, published 2025) one finds IC50 and AC50 data, which are given here for 25 compounds.

Molecules are shown by their SMILES. pIC50: −log10 of the molar value. Structures can show the parent of a compound that is named as a salt. Where two headings read alike, the source gives them in different places.

Test [1] concerns HiBiT-tagged MYB protein. The test can be described thus: HiBiT protein abundance assay, MYB (K562 HiBiT knock-in). The class given is cell-based, human. Conditions: HiBiT knock-in cells, 24 hours. The procedure, abridged:
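Endogenously HiBiT-tagged K562 knock-in lines treated 24 h at 37 °C with 10-point 3-fold dilutions (top 10 μM final, DMSO ≤0.25%) in IMDM+1% FBS. Lytic Nano-Glo luminescence normalized to DMSO and unmodified K562 controls; four-parameter fit gives 50%-abundance concentration (IC50).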
For orientation: With HiBiT, luminescence reflects the tagged protein that the partner subunit can reach.

Test [2] has as its system MYB mRNA. The test can be described thus: Splicing RT-qPCR assay, MYB canonical (CJ) and alternative (AJ) junction mRNA. The settings on record: for pIC50: canonical junction mRNA; for AC50: alternative junction mRNA, read-out: MYB AJ (AC50, increase in AJ mRNA). It counts as cell-based, human. The procedure, abridged:
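One-step RT-qPCR on cell lysates quantified CJ and AJ isoforms, normalized to PPIA for A673 or GAPDH/GUSB for K562. Cells were exposed for 24 h at 37° C to 11 concentrations in 3-fold steps up to 10 uM, with DMSO ≤0.25%. A673 were grown in DMEM and K562 in IMDM, both with 10% FBS.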

The mark [3] stands for this setting: Homo sapiens, qPCR panel, read-out: MYB CJ (decrease in CJ mRNA levels, IC50).
Where [4] appears, read: Homo sapiens, RT-qPCR, A673 or K562 cells, 24 hours treatment.
Where [5] appears, read: Homo sapiens, RT-qPCR, A673 or K562 cells, 24 hours treatment, read-out: MYB CJ (IC50, decrease in CJ mRNA).

For orientation: pIC50 means the IC50 on a negative log10 scale, so that one unit is a factor of ten. The AC50 is the midpoint of the concentration-response curve, whichever way the signal moves.

For `CN[C@@H]1CCN(c2cnc3nc(-c4cc(F)c5nc(C)cn5c4)ncc3c2)C1` [Compound 202, (3R)-1-(2-{8-fluoro-2-methylimidazo[1,2-a]pyridin-6-yl}pyrido[2,3-d]pyrimidin-6-yl)-N-methylpyrrolidin-3-amine], the negative logarithm of the IC50 (pIC50) in test [1], in test [2] (setting [3]) and in test [2] (setting [5]) was more than 7.00 each time. In addition, in test [2] (setting [4]), the concentration at half-maximal activity (AC50) was in the range of 0.1 to 1 µM.

With `CC1CN(c2cnc3nc(-c4cc(F)c5nn(C)cc5c4)cc(Cl)c3c2)CCN1` (stereo not shown) [Compound 203, 4-chloro-2-(7-fluoro-2-methyl-2H-indazol-5-yl)-6-(3-methylpiperazin-1-yl)-1,8-naphthyridine 2,2,2-trifluoroacetate], the pIC50 in test [1], in test [2] (setting [3]) and in test [2] (setting [5]) was 6.00 to 7.00 each time. The AC50 in test [2] (setting [4]) is less than 0.1 µM.

As to `Cc1c(O)c(-c2cc(Cl)c3cc(N(C)C4CCNC4)cnc3n2)cc2cn(C)nc12` (stereo not shown) [Compound 204, 5-[4-chloro-6-(367pyrrolidine-3-ylamino)-1,8-naphthyridin-2-yl]-2,7-dimethylindazol-6-ol], the pIC50 in test [1], in test [2] (setting [3]) and in test [2] (setting [5]) was 6.00 to 7.00 in each case. For the same compound, the half-maximal activity concentration (AC50) in test [2] (setting [4]) was 0.1 to 1 µM.

Consider `Cc1cn2nc(-c3ccc4cc(N(C)C5CCNCC5)cnc4n3)cc(C)c2n1` [Compound 205, 7-{2,8-dimethylimidazo[1,2-b]pyridazin-6-yl}-N-methyl-N-(piperidin-4-yl)-1,8-naphthyridin-3-amine], for which the pIC50 in test [1], in test [2] (setting [3]) and in test [2] (setting [5]) was 5.00 to 6.00 throughout. Besides, the AC50 in test [2] (setting [4]) lay in the range of 1 to 10 µM.

On to `C[C@@H]1CN(c2cnc3nc(-c4cc5cn(C)nc5c(F)c4O)ccc3c2)C[C@H](C)N1` [Compound 206], for which the negative-log IC50 (pIC50) in test [1], in test [2] (setting [3]) and in test [2] (setting [5]) was more than 7.00 in each case. In test [2] (setting [4]), the concentration at half-maximal activity (AC50) is less than 0.1 µM.

For `Cc1c(O)c(-c2cc(Cl)c3cc(N4C[C@@H](C)N[C@@H](C)C4)cnc3n2)cc2cn(C)nc12` [Compound 207, 5-{4-chloro-6-[(3R,5S)-3,5-dimethylpiperazin-1-yl]-1,8-naphthyridin-2-yl}-2,7-dimethylindazol-6-ol], the pIC50 was more than 7.00 in test [1]; more than 7.00 in test [2] (RT-qPCR, A673 or K562 cells, 24 hours treatment, read-out: MYB CJ (IC50, decrease in CJ mRNA)); more than 7.00 in test [2] (qPCR panel, read-out: MYB CJ (decrease in CJ mRNA levels, IC50)). Moreover, in test [2] (RT-qPCR, A673 or K562 cells, 24 hours treatment), the concentration at half-maximal activity (AC50) is less than 0.1 µM.

Regarding `C[C@@H]1CN(c2cnc3nc(-c4cc5cn(C)nc5cc4O)cc(Cl)c3c2)C[C@H](C)N1` [Compound 208], the pIC50 in test [1], in test [2] (setting [3]) and in test [2] (setting [5]) was more than 7.00 each time. Further, the AC50 in test [2] (setting [4]) is less than 0.1 µM.

On to `Cn1cc2cc(-c3cc(Cl)c4cc(N5CCNC(C6CC6)C5)cnc4n3)cc(F)c2n1` (stereo not shown) [Compound 209, 4-chloro-6-(3-cyclopropylpiperazin-1-yl)-2-(7-fluoro-2-methylindazol-5-yl)-1,8-naphthyridine], for which the pIC50 in test [1], in test [2] (setting [3]) and in test [2] (setting [5]) was 6.00 to 7.00 each time. Besides, the AC50 in test [2] (setting [4]) was 0.1 to 1 µM.

`Cc1cn2nc(-c3ccc4cc(NC5CCNCC5)cnc4n3)cc(C)c2n1` [Compound 210, 7-{2,8-dimethylimidazo[1,2-b]pyridazin-6-yl}-N-(piperidin-4-yl)-1,8-naphthyridin-3-amine; trifluoroacetic acid]: the pIC50 in test [1], in test [2] (setting [3]) and in test [2] (setting [5]) was 5.00 to 6.00 throughout. The AC50 in test [2] (setting [4]) fell in the range of 1 to 10 µM.

For the compound `CN[C@@H]1CCN(c2cnc3nc(-c4cc5cn(C)nc5c(C)c4O)nc(OC)c3c2)C1` [Compound 211, 5-{4-methoxy-6-[(3R)-3-(methylamino)pyrrolidin-1-yl]pyrido[2,3-d]pyrimidin-2-yl}-2,7-dimethylindazol-6-ol], the negative-log IC50 (pIC50) in test [1], in test [2] (setting [3]) and in test [2] (setting [5]) was more than 7.00 each time. Also, the AC50 in test [2] (setting [4]) is less than 0.1 µM.

In the case of `CN[C@H]1CCN(c2cnc3nc(-c4cc5cn(C)nc5c(C)c4O)nc(OC)c3c2)C1` [Compound 212, 5-{4-methoxy-6-[(3S)-3-(methylamino)pyrrolidin-1-yl]pyrido[2,3-d]pyrimidin-2-yl}-2,7-dimethylindazol-6-ol], the pIC50 in test [1], in test [2] (setting [3]) and in test [2] (setting [5]) was more than 7.00 in each case. In addition, in test [2] (setting [4]), the AC50 is less than 0.1 µM.

Turning to `CNC1CCN(c2cnc3nc(-c4cc5cn(C)nc5cc4O)cc(Cl)c3c2)C1` (stereo not shown) [Compound 213, 5-{4-chloro-6-[3-(methylamino)370pyrrolidine-1-yl]-1,8-naphthyridin-2-yl}-2-methylindazol-6-ol], the pIC50 in test [1], in test [2] (setting [3]) and in test [2] (setting [5]) was more than 7.00 throughout. In addition, in test [2] (setting [4]), the AC50 was less than 0.1 µM.

On to `Cc1c(O)c(-c2ncc3cc(N4C[C@@H](C)N[C@@H](C)C4)cnc3n2)cc2cn(C)nc12` [Compound 214], for which the pIC50 in test [1], in test [2] (setting [3]) and in test [2] (setting [5]) was 6.00 to 7.00 throughout. Further, the AC50 in test [2] (setting [4]) was in the range of 0.1 to 1 µM.

As to `C[C@@H]1CN(c2cnc3nc(-c4cc(F)c5nn(C)cc5c4)cc(Cl)c3c2)C[C@H](C)N1` [Compound 215], the pIC50 in test [1], in test [2] (setting [3]) and in test [2] (setting [5]) was 6.00 to 7.00 in each case. In addition, the concentration at half-maximal activity (AC50) in test [2] (setting [4]) fell in the range of 0.1 to 1 µM.

As for `Cn1cc2cc(-c3cc(Cl)c4cc(N5CCN6CCCC6C5)cnc4n3)cc(F)c2n1` (stereo not shown) [Compound 216, 4-chloro-2-(7-fluoro-2-methylindazol-5-yl)-6-{hexahydro-1H-pyrrolo[1,2-a]pyrazin-2-yl}-1,8-naphthyridine trifluoroacetic acid], the pIC50 in test [1], in test [2] (setting [3]) and in test [2] (setting [5]) was 6.00 to 7.00 throughout. Besides, the AC50 in test [2] (setting [4]) lay within 0.1 to 1 µM.

Consider `Cc1c(O)c(-c2cc(-c3ccccn3)c3cc(N4C[C@@H](C)N[C@@H](C)C4)cnc3n2)cc2cn(C)nc12` [Compound 217, 5-{6-[(3R,5S)-3,5-dimethylpiperazin-1-yl]-4-(pyridin-2-yl)-1,8-naphthyridin-2-yl}-2,7-dimethylindazol-6-ol], for which the pIC50 was 5.00 to 6.00 in test [1], less than 5.00 in test [2] (setting [3]) and less than 5.00 in test [2] (setting [5]). The concentration at half-maximal activity (AC50) in test [2] (setting [4]) was more than 10 µM.

On to `COc1nc(-c2cc3cn(C)nc3c(F)c2O)nc2ncc(N3C[C@@H](C)N[C@@H](C)C3)cc12` [Compound 218], for which the pIC50 in test [1], in test [2] (setting [3]) and in test [2] (setting [5]) was more than 7.00 in each case. Moreover, the AC50 in test [2] (setting [4]) was less than 0.1 µM.

As to `COc1nc(-c2cc3cn(C)nc3c(F)c2O)nc2ncc(N3CCC(N(C)C)CC3)cc12` [Compound 219, 5-{6-[4-(dimethylamino)piperidin-1-yl]-4-methoxypyrido[2,3-d]pyrimidin-2-yl}-7-fluoro-2-methylindazol-6-ol], the pIC50 in test [1], in test [2] (setting [3]) and in test [2] (setting [5]) was more than 7.00 each time. For the same compound, the AC50 in test [2] (setting [4]) is less than 0.1 µM.

For `CN(C)[C@@H]1CCN(c2cnc3nc(-c4cc5cn(C)nc5c(F)c4O)cc(Cl)c3c2)C1` [Compound 220], the pIC50 in test [1], in test [2] (setting [3]) and in test [2] (setting [5]) was more than 7.00 each time. The AC50 in test [2] (setting [4]) is less than 0.1 µM.

On to `CN(C)[C@H]1CCN(c2cnc3nc(-c4cc5cn(C)nc5c(F)c4O)cc(Cl)c3c2)C1` [Compound 221], for which the pIC50 in test [1], in test [2] (setting [3]) and in test [2] (setting [5]) was more than 7.00 throughout. Moreover, in test [2] (setting [4]), the AC50 is less than 0.1 µM.

Take `C[C@H]1CN(c2cnc3nc(-c4cc5cn(C)nc5cc4O)cc(Cl)c3c2)C[C@H](C)N1` [Compound 242]: the pIC50 in test [1], in test [2] (setting [3]) and in test [2] (setting [5]) was more than 7.00 in each case. Besides, the AC50 in test [2] (setting [4]) is less than 0.1 µM.

With `C[C@@H]1CN(c2cnc3nc(-c4cc5cn(C)nc5cc4O)cc(Cl)c3c2)C[C@@H](C)N1` [Compound 243, 5-{4-chloro-6-[(3R,5R)-3,5-dimethylpiperazin-1-yl]-1,8-naphthyridin-2-yl}-2-methylindazol-6-ol hydrochloride], the pIC50 in test [1], in test [2] (setting [3]) and in test [2] (setting [5]) was 6.00 to 7.00 in each case. Also, the AC50 in test [2] (setting [4]) is 0.1 to 1 µM.

Consider `C[C@H]1CN(c2cnc3nc(-c4cc(F)c5nn(C)cc5c4)cc(Cl)c3c2)C[C@H](C)N1` [Compound 250], for which the pIC50 in test [1], in test [2] (setting [3]) and in test [2] (setting [5]) was more than 7.00 each time. Moreover, the AC50 in test [2] (setting [4]) was less than 0.1 µM.

For the compound `C[C@@H]1CN(c2cnc3nc(-c4cc(F)c5nn(C)cc5c4)cc(Cl)c3c2)C[C@@H](C)N1` [Compound 251], the pIC50 in test [1], in test [2] (setting [3]) and in test [2] (setting [5]) was 6.00 to 7.00 throughout. The AC50 in test [2] (setting [4]) is 0.1 to 1 µM.

Take `Cc1c(O)c(-c2cc(-c3nnc[nH]3)c3cc(N4C[C@@H](C)N[C@@H](C)C4)cnc3n2)cc2cn(C)nc12` [Compound 261, 5-{6-[(3R,5S)-3,5-dimethylpiperazin-1-yl]-4-(4H-1,2,4-triazol-3-yl)-1,8-naphthyridin-2-yl}-2,7-dimethylindazol-6-ol]: the negative logarithm of the IC50 (pIC50) was less than 5.00 in test [1], more than 7.00 in test [2] (setting [3]) and 5.00 to 6.00 in test [2] (setting [5]). Besides, the AC50 in test [2] (setting [4]) was more than 10 µM.
